Among the test systems are Escherichia coli UB1005; Escherichia coli 078; Streptococcus agalactiae.
Holding throughout (experiment): ≥ marks a high value that may be exact or a test limit, other limits are often not marked, values filed in µg/mL are converted to µM
Experiment [1] concerns Streptococcus agalactiae CICC 10465.
Experiment [2] has as its system Staphylococcus aureus ATCC 25923.
Experiment [3] deals with Salmonella enterica subsp. enterica serovar Typhimurium C77-31.
Experiment [4] relates to Staphylococcus epidermidis ATCC 12228.
The test system of experiment [5] is Escherichia coli ATCC 25922.
In experiment [6] the test system is Pseudomonas aeruginosa ATCC 27853.
Experiment [7] has as its system Salmonella enterica subsp. enterica serovar Typhimurium ATCC 14028.
Experiment [8] relates to Streptococcus thermophilus YM-C.
Experiment [9] deals with Staphylococcus aureus ATCC 29213.
Experiment [10] deals with Salmonella enterica subsp. enterica serovar Pullorum ATCC 7913.
For experiment [11], the system named is Lacticaseibacillus rhamnosus 7469.
The subject of experiment [12] is Candida albicans ATCC 10231.
The test system of experiment [13] is Pseudomonas aeruginosa ATCC 9027.
The test system of experiment [14] is Enterococcus faecalis PCM 2673.
Experiment [15] has as its system Klebsiella pneumoniae ATCC 13883.
Experiment [16] has as its system Staphylococcus aureus USA 300 LAC.
For experiment [17], the system named is Micrococcus luteus NBRC 3333.
The test system of experiment [18] is Staphylococcus epidermidis NBRC 12993.
The subject of experiment [19] is Aspergillus oryzae NBRC 100959.
Experiment [20] deals with Escherichia coli NBRC 3972.
The subject of experiment [21] is Candida viswanathii NBRC 10321.
Experiment [22] relates to Acinetobacter baumannii CCARM 12035.
Experiment [23] deals with Escherichia coli KCTC 1682.
For experiment [24], the system named is Salmonella typhimurium CCARM 8009.
Experiment [25] has as its system Pseudomonas aeruginosa KCTC 1637.
Experiment [26] deals with Enterococcus faecalis KCTC 2011.
Experiment [27] has as its system Escherichia coli CCARM 1229.
For experiment [28], the system named is Salmonella typhimurium KCTC 1926.
The subject of experiment [29] is Staphylococcus aureus KCTC 1621.
Experiment [30] concerns Pseudomonas aeruginosa CCARM 2095.
Experiment [31] has as its system Bacillus subtilis KCTC 3068.

From DBAASP come the findings set out here.

≈ marks a conversion by molar mass, not a printed value.

As a reminder, the MIC is the smallest concentration in the dilution series that meets the test's criterion for growth inhibition. High values mean a need for much substance, low ones inhibition by little substance. In the case of `CC[C@H](C)[C@H](NC(=O)[C@H](CC(C)C)NC(=O)[C@@H](NC(=O)[C@@H](N)CC(=O)O)[C@@H](C)CC)C(=O)N[C@H](C(=O)N[C@H](C(=O)NCC(=O)NCC(=O)N[C@@H](CCCCN)C(=O)N[C@@H](CCC(N)=O)C(=O)N[C@@H](CCCN=C(N)N)C(=O)N[C@@H](CCCCN)C(=O)N[C@@H](CCCCN)C(=O)N[C@@H](CCCN=C(N)N)C(=O)N[C@@H](CCCN=C(N)N)C(=O)N[C@@H](CCCN=C(N)N)C(N)=O)C(C)C)[C@@H](C)CC` [DILIIVGGKQRKKRRR], the MIC against Escherichia coli UB1005 turned out to be 8 µM (≈ 15.5 µg/mL); in [1], 2 µM (≈ 3.87 µg/mL); in [2], 8 µM (≈ 15.5 µg/mL); in experiment [3], 4 µM (≈ 7.74 µg/mL); in experiment [4] it was 4 µM (≈ 7.74 µg/mL); in [5] it was 4 µM (≈ 7.74 µg/mL). Moreover, the MIC is 4 µM (≈ 7.74 µg/mL) in experiment [6]; 4 µM (≈ 7.74 µg/mL) in the experiment on Escherichia coli 078; 5.66 µM (≈ 10.9 µg/mL) against Streptococcus agalactiae; 4 µM (≈ 7.74 µg/mL) in experiment [7]; at least 64 µM in [8]; 4 µM (≈ 7.74 µg/mL) in experiment [9]. The minimal inhibitory concentration (MIC) in experiment [10] is 8 µM (≈ 15.5 µg/mL); in [11], at least 32 µM.

Turning to `CC[C@H](C)[C@H](NC(=O)[C@H](CC(C)C)NC(=O)[C@@H](NC(=O)[C@@H](N)CC(=O)O)[C@@H](C)CC)C(=O)N[C@H](C(=O)N[C@H](C(=O)NCC(=O)NCC(=O)N[C@@H](CCCN=C(N)N)C(=O)N[C@@H](CCCN=C(N)N)C(=O)N[C@@H](CCCN=C(N)N)C(=O)N[C@@H](CCCN=C(N)N)C(=O)N[C@@H](CCCN=C(N)N)C(=O)N[C@@H](CCCN=C(N)N)C(N)=O)C(C)C)[C@@H](C)CC` [DILIIVGGRRRRRR], the MIC in the experiment with Escherichia coli UB1005 is 16 µM (≈ 27.8 µg/mL); in [1], 2 µM (≈ 3.47 µg/mL); in experiment [2] it was over 64 µM; in experiment [3], at least 64 µM; in experiment [4] it was 2 µM (≈ 3.47 µg/mL); in [5] it was 16 µM (≈ 27.8 µg/mL). Besides, the MIC in experiment [6] was over 64 µM; against Escherichia coli 078, at least 32 µM; in the experiment on Streptococcus agalactiae, 5.66 µM (≈ 9.82 µg/mL); in experiment [7], over 64 µM; in experiment [8], at least 64 µM; in experiment [9] it was 2 µM (≈ 3.47 µg/mL). Also, the minimal inhibitory concentration (MIC) was 8 µM (≈ 13.9 µg/mL) in [10] and at least 64 µM in experiment [11].

Regarding `CC[C@H](C)[C@H](NC(=O)[C@H](CCCCN)NC(=O)[C@H](CCCCN)NC(=O)[C@@H](NC(=O)[C@@H](NC(=O)[C@H](CC(=O)O)NC(=O)[C@H](Cc1ccccc1)NC(=O)[C@H](CC(C)C)NC(=O)CN)[C@@H](C)CC)[C@@H](C)CC)C(=O)N[C@@H](C)C(=O)N[C@@H](C)C(=O)N[C@@H](CO)C(=O)N[C@@H](Cc1ccccc1)C(N)=O` [GLFDIIKKIAASF], the MIC in experiment [2] was 22.5 µM (≈ 32 µg/mL); in experiment [5] it was 11.2 µM (≈ 16 µg/mL); in experiment [12], 22.5 µM (≈ 32 µg/mL); in [13], 45 µM (≈ 64 µg/mL); in experiment [14], 22.5 µM (≈ 32 µg/mL).

As for `CC[C@H](C)[C@H](NC(=O)[C@H](CCCCN)NC(=O)[C@H](CCCN=C(N)N)NC(=O)[C@@H](N)CC(C)C)C(=O)N[C@@H](Cc1c[nH]c2ccccc12)C(=O)N[C@@H](Cc1c[nH]c2ccccc12)C(=O)N[C@@H](Cc1c[nH]c2ccccc12)C(=O)N[C@@H](Cc1c[nH]c2ccccc12)C(N)=O` [LRKIWWWW], the values for the MIC in experiment [15], in [5] and in experiment [16] were 8.8 µM (≈ 11.2 µg/mL), 12.5 µM (≈ 15.9 µg/mL) and 4.38 µM (≈ 5.58 µg/mL), respectively.

As for `CC[C@H](C)[C@H](NC(=O)[C@H](CCCCN)NC(=O)[C@@H](N)CCCN=C(N)N)C(=O)N[C@@H](CCCCN)C(=O)N[C@@H](CCCN=C(N)N)C(=O)N[C@@H](Cc1ccc(O)cc1)C(=O)N[C@@H](CC(C)C)C(=O)N[C@@H](CCCN=C(N)N)C(=O)N[C@@H](CCCN=C(N)N)C(=O)N[C@@H](CCSC)C(=O)N[C@H](C(=O)N[C@H](C(=O)N[C@H](C(=O)N[C@@H](Cc1c[nH]c2ccccc12)C(=O)O)[C@@H](C)CC)[C@@H](C)CC)[C@@H](C)CC` [RKIKRYLRRMIIIW], the minimum inhibitory concentration (MIC) in [17] is 25.7 µM (≈ 50 µg/mL); in experiment [18], 12.9 µM (≈ 25 µg/mL); in experiment [19], 12.9 µM (≈ 25 µg/mL); in experiment [20] it was at least 411 µM; in experiment [21], 25.7 µM (≈ 50 µg/mL).

For the compound `CC[C@H](C)[C@H](NC(=O)CNC(=O)[C@H](CC(=O)O)NC(=O)[C@H](CCCN=C(N)N)NC(=O)[C@@H](NC(=O)[C@H](CC(N)=O)NC(=O)[C@H](CCCN=C(N)N)NC(=O)CNC(=O)[C@@H](NC(=O)[C@H](CCCCN)NC(=O)[C@H](CCC(=O)O)NC(=O)[C@@H](NC(=O)[C@H](CCCCN)NC(=O)[C@H](CCCCN)NC(=O)[C@H](C)NC(=O)[C@@H](NC(=O)[C@H](CCCCN)NC(=O)[C@H](Cc1c[nH]c2ccccc12)NC(=O)[C@@H](N)CCCN=C(N)N)[C@@H](C)CC)[C@@H](C)CC)C(C)C)C(C)C)C(=O)N[C@H](C(=O)N[C@@H](CCCCN)C(=O)N[C@@H](C)C(N)=O)[C@@H](C)CC` [RWKIAKKIEKVGRNVRDGIIKA], the MIC in [22] was 8 µM (≈ 20.6 µg/mL); in experiment [23], 1 µM (≈ 2.58 µg/mL); in [24], 4 µM (≈ 10.3 µg/mL); in [25], 2 µM (≈ 5.16 µg/mL); in [26], at least 128 µM; in experiment [27], 2 µM (≈ 5.16 µg/mL). In addition, the MIC in experiment [28] was determined as 2 µM (≈ 5.16 µg/mL); in [29] it was 16 µM (≈ 41.3 µg/mL); in [30], 8 µM (≈ 20.6 µg/mL); in [31] it was 16 µM (≈ 41.3 µg/mL).

For the compound `CC[C@H](C)[C@H](NC(=O)CNC(=O)[C@H](CC(=O)O)NC(=O)[C@H](CCCN=C(N)N)NC(=O)[C@@H](NC(=O)[C@H](CC(N)=O)NC(=O)[C@H](CCCN=C(N)N)NC(=O)CNC(=O)[C@@H](NC(=O)[C@H](CCCCN)NC(=O)[C@H](CCC(=O)O)NC(=O)[C@@H](NC(=O)[C@H](CCCCN)NC(=O)[C@H](CCCCN)NC(=O)[C@H](Cc1ccccc1)NC(=O)[C@@H](NC(=O)[C@H](CCCCN)NC(=O)[C@H](Cc1c[nH]c2ccccc12)NC(=O)[C@@H](N)CCCN=C(N)N)[C@@H](C)CC)[C@@H](C)CC)C(C)C)C(C)C)C(=O)N[C@H](C(=O)N[C@@H](CCCCN)C(=O)N[C@@H](C)C(N)=O)[C@@H](C)CC` [RWKIFKKIEKVGRNVRDGIIKA], the minimum inhibitory concentration (MIC) in experiment [22] is 2 µM (≈ 5.31 µg/mL); in experiment [23] it was 1 µM (≈ 2.65 µg/mL); in experiment [24] it was 2 µM (≈ 5.31 µg/mL); in [25], 2 µM (≈ 5.31 µg/mL); in [26], at least 64 µM; in experiment [27] it was 4 µM (≈ 10.6 µg/mL). The MIC in experiment [28] came out at 2 µM (≈ 5.31 µg/mL); in [29], 8 µM (≈ 21.2 µg/mL); in experiment [30], 2 µM (≈ 5.31 µg/mL); in [31], 8 µM (≈ 21.2 µg/mL).

On to `CC[C@H](C)[C@H](NC(=O)[C@H](CCCCN)NC(=O)[C@H](CCCN=C(N)N)NC(=O)[C@H](CC(C)C)NC(=O)[C@@H](N)Cc1c[nH]c2ccccc12)C(=O)N[C@@H](Cc1c[nH]c2ccccc12)C(=O)N[C@@H](Cc1c[nH]c2ccccc12)C(=O)N[C@@H](Cc1c[nH]c2ccccc12)C(N)=O` [WLRKIWWW], for which the figures for the MIC in experiment [15], in [5] and in [16] were 25 µM (≈ 31.8 µg/mL), 17.7 µM (≈ 22.5 µg/mL) and 4.38 µM (≈ 5.58 µg/mL), respectively.
